According to PubChem BioAssay AID2060504 (Molecular Pharmacology Branch, DTP, NCI, 2025):

System: 636577-100-R-J1-PDC complex spheroid viability
Test: Anticancer human tumor 636577-100-R-J1-PDC patient-derived endometrial adenocarcinoma cell line growth inhibition [GQUAD]
Conditions: for IC50: curve of first compound; for viability, T/C: stronger effect = lower value; active = viability on the fitted dose curve at most 10% of control; inactive = the rest
Outline: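 Viability of tumor cells grown as complex spheroids with endothelial and stromal cells, exposed to drug combinations. Top concentration at or near clinical Cmax (else 10 microM), diluted in half-log increments.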

[1] = second compound 0.0316 µM, first compound 0.0316 µM
[2] = second compound 0.0316 µM, first compound 0.1 µM
[3] = second compound 0.0316 µM, first compound 0.316 µM
[4] = second compound 0.0316 µM, first compound 1 µM
[5] = second compound 0.0316 µM, first compound 3.16 µM
[6] = second compound 0.0316 µM, first compound 10 µM
[7] = second compound 0.1 µM, first compound 0.0316 µM
[8] = second compound 0.1 µM, first compound 0.1 µM
[9] = second compound 0.1 µM, first compound 0.316 µM
[10] = second compound 0.1 µM, first compound 1 µM
[11] = second compound 0.1 µM, first compound 3.16 µM
[12] = second compound 0.1 µM, first compound 10 µM
[13] = second compound 0.316 µM, first compound 0.0316 µM
[14] = second compound 0.316 µM, first compound 0.1 µM
[15] = second compound 0.316 µM, first compound 0.316 µM
[16] = second compound 0.316 µM, first compound 1 µM
[17] = second compound 0.316 µM, first compound 3.16 µM
[18] = second compound 0.316 µM, first compound 10 µM
[19] = second compound 1 µM, first compound 0.0316 µM
[20] = second compound 1 µM, first compound 0.1 µM
[21] = second compound 1 µM, first compound 0.316 µM
[22] = second compound 1 µM, first compound 1 µM
[23] = second compound 1 µM, first compound 3.16 µM
[24] = second compound 1 µM, first compound 10 µM
[25] = second compound 3.16 µM, first compound 0.0316 µM
[26] = second compound 3.16 µM, first compound 0.1 µM
[27] = second compound 3.16 µM, first compound 0.316 µM
[28] = second compound 3.16 µM, first compound 1 µM
[29] = second compound 3.16 µM, first compound 3.16 µM
[30] = second compound 3.16 µM, first compound 10 µM
[31] = second compound 10 µM, first compound 0.0316 µM
[32] = second compound 10 µM, first compound 0.1 µM
[33] = second compound 10 µM, first compound 0.316 µM
[34] = second compound 10 µM, first compound 1 µM
[35] = second compound 10 µM, first compound 3.16 µM
[36] = second compound 10 µM, first compound 10 µM
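Also: viability read after seven days of drug exposure.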
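For viability, T/C in this document: luminescence signal used as a proxy for viable cells; 100% = DMSO vehicle control wells.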

C#Cc1c(F)ccc2cc(O)cc(-c3ncc4c(N5CC6CCC(C5)N6)nc(OCC56CCCN5CC(F)C6)nc4c3F)c12 (stereo not given) + Cc1[nH]c2ccc(F)cc2c1-c1nc2c3cccnc3c3ncccc3c2[nH]1
1750 nM: IC50 (second compound 1 µM)
6400 nM: IC50 (second compound 0.0316 µM)
4540 nM: IC50 (second compound 0.316 µM)
4770 nM: IC50 (second compound 0.1 µM)
inactive: viability, T/C [1] 88.5% | viability, T/C [2] 99.4% | viability, T/C [3] 87.9% | viability, T/C [4] 78.7% | viability, T/C [5] 66.7% | viability, T/C [6] 39.9% | viability, T/C [7] 108% | viability, T/C [8] 93.7% | viability, T/C [9] 80.7% | viability, T/C [10] 59.5% | viability, T/C [11] 59.8% | viability, T/C [12] 41.2% | viability, T/C [13] 74.3% | viability, T/C [14] 61% | viability, T/C [15] 72.8% | viability, T/C [16] 78.6% | viability, T/C [17] 56.1% | viability, T/C [18] 36.7% | viability, T/C [19] 53% | viability, T/C [20] 78.2% | viability, T/C [21] 80.5% | viability, T/C [22] 51.8% | viability, T/C [23] 44.2% | viability, T/C [24] 28.1% | viability, T/C [25] 24.1% | viability, T/C [26] 23.5% | viability, T/C [27] 23.5% | viability, T/C [28] 22.6% | viability, T/C [29] 19.3% | viability, T/C [30] 12.7% | viability, T/C [31] 31% | viability, T/C [32] 39.9% | viability, T/C [33] 38.8% | viability, T/C [34] 28.5% | viability, T/C [35] 24.9% | viability, T/C [36] 15.8%
< 31.6 nM: IC50 (second compound 3.16 µM) | IC50 (second compound 10 µM)

Nc1ccn(C2OC(CO)C(O)C2(F)F)c(=O)n1 (stereo not given) + Cc1cnc(CNC(=O)c2c(=O)c3ccc(N4CCCN(C)CC4)nc3n3c2sc2ccccc23)cn1
inactive: viability, T/C [1] 15.9% | viability, T/C [2] 13.3% | viability, T/C [3] 15% | viability, T/C [4] 12.4% | viability, T/C [5] 13.6% | viability, T/C [6] 12.1% | viability, T/C [7] 17.9% | viability, T/C [8] 13.8% | viability, T/C [9] 16.3% | viability, T/C [10] 13.3% | viability, T/C [11] 16.2% | viability, T/C [12] 14.6% | viability, T/C [13] 17.6% | viability, T/C [14] 15.1% | viability, T/C [15] 16.5% | viability, T/C [16] 15.2% | viability, T/C [17] 16.3% | viability, T/C [18] 13.9% | viability, T/C [19] 14.7% | viability, T/C [20] 14.8% | viability, T/C [21] 16.6% | viability, T/C [22] 17.5% | viability, T/C [23] 16.6% | viability, T/C [24] 15.3% | viability, T/C [25] 15.4% | viability, T/C [26] 16.5% | viability, T/C [27] 17.9% | viability, T/C [28] 17.7% | viability, T/C [29] 17.6% | viability, T/C [30] 12.7% | viability, T/C [31] 18.2% | viability, T/C [32] 13.8% | viability, T/C [33] 18.1% | viability, T/C [34] 16.4% | viability, T/C [35] 16.3% | viability, T/C [36] 13.5%
< 31.6 nM: IC50 (second compound 0.0316 µM) | IC50 (second compound 0.1 µM) | IC50 (second compound 0.316 µM) | IC50 (second compound 1 µM) | IC50 (second compound 3.16 µM) | IC50 (second compound 10 µM)

C=CCn1c(=O)c2cnc(Nc3ccc(N4CCN(C)CC4)cc3)nc2n1-c1cccc(C(C)(C)O)n1 + CN(C)c1ccc(Nc2c3ccc(NC(=O)CCN4CCCC4)cc3nc3cc(NC(=O)CCN4CCCC4)ccc23)cc1
598 nM: IC50 (second compound 0.0316 µM)
382 nM: IC50 (second compound 0.316 µM)
inactive: viability, T/C [1] 88.3% | viability, T/C [2] 67.3% | viability, T/C [3] 81.4% | viability, T/C [4] 26.6% | viability, T/C [5] 15.9% | viability, T/C [6] 9.28% | viability, T/C [7] 107% | viability, T/C [8] 73.6% | viability, T/C [9] 51.7% | viability, T/C [10] 28.9% | viability, T/C [11] 15.1% | viability, T/C [13] 88.3% | viability, T/C [14] 69.2% | viability, T/C [15] 57.7% | viability, T/C [16] 30.9% | viability, T/C [17] 15.2% | viability, T/C [19] 48.6% | viability, T/C [20] 63% | viability, T/C [21] 52.1% | viability, T/C [22] 32% | viability, T/C [23] 19.2% | viability, T/C [24] 11.6% | viability, T/C [25] 37.6% | viability, T/C [26] 36.8% | viability, T/C [27] 30.9% | viability, T/C [28] 23.8% | viability, T/C [29] 16.5% | viability, T/C [30] 10.8%
353 nM: IC50 (second compound 1 µM)
active: viability, T/C [12] 9.88% | viability, T/C [18] 9.64% | viability, T/C [31] 5.9% | viability, T/C [32] 4.13% | viability, T/C [33] 3.79% | viability, T/C [34] 3.8% | viability, T/C [35] 2.91% | viability, T/C [36] 0.74%
< 31.6 nM: IC50 (second compound 3.16 µM) | IC50 (second compound 10 µM)
304 nM: IC50 (second compound 0.1 µM)

C=CC(=O)N1CCN(c2nc(=O)n(-c3c(C)ccnc3C(C)C)c3nc(-c4c(O)cccc4F)c(F)cc23)C(C)C1 (stereo not given) + CN(C)c1ccc(Nc2c3ccc(NC(=O)CCN4CCCC4)cc3nc3cc(NC(=O)CCN4CCCC4)ccc23)cc1
inactive: viability, T/C [1] 82.5% | viability, T/C [2] 60.8% | viability, T/C [3] 114% | viability, T/C [4] 75.2% | viability, T/C [5] 91.9% | viability, T/C [6] 64.8% | viability, T/C [7] 73.5% | viability, T/C [8] 67.1% | viability, T/C [9] 78.9% | viability, T/C [10] 73% | viability, T/C [11] 108% | viability, T/C [12] 75.6% | viability, T/C [13] 79.5% | viability, T/C [14] 63.9% | viability, T/C [15] 88% | viability, T/C [16] 81.2% | viability, T/C [17] 97.5% | viability, T/C [18] 67.4% | viability, T/C [19] 85.9% | viability, T/C [20] 54.3% | viability, T/C [21] 76.3% | viability, T/C [22] 96.9% | viability, T/C [23] 94.5% | viability, T/C [24] 60.3% | viability, T/C [25] 42% | viability, T/C [26] 43.9% | viability, T/C [27] 35.4% | viability, T/C [28] 53.6% | viability, T/C [29] 43.7% | viability, T/C [30] 28.9%
active: viability, T/C [31] 6.52% | viability, T/C [32] 5.91% | viability, T/C [33] 6.86% | viability, T/C [34] 6.43% | viability, T/C [35] 3.58% | viability, T/C [36] 0.96%
< 31.6 nM: IC50 (second compound 3.16 µM) | IC50 (second compound 10 µM)
> 10000 nM: IC50 (second compound 0.0316 µM) | IC50 (second compound 0.1 µM) | IC50 (second compound 0.316 µM) | IC50 (second compound 1 µM)

CC(C)n1c(=O)n(C)c2cnc3cc(F)c(-c4ccc(OCCCN5CCCCC5)nc4)cc3c21 + CN(C)c1ccc(Nc2c3ccc(NC(=O)CCN4CCCC4)cc3nc3cc(NC(=O)CCN4CCCC4)ccc23)cc1
4900 nM: IC50 (second compound 1 µM)
active: viability, T/C [31] 7% | viability, T/C [32] 5.49% | viability, T/C [33] 4.48% | viability, T/C [34] 2.77% | viability, T/C [35] 2.25% | viability, T/C [36] 0.79%
inactive: viability, T/C [1] 121% | viability, T/C [2] 101% | viability, T/C [3] 127% | viability, T/C [4] 49.5% | viability, T/C [5] 93.8% | viability, T/C [6] 53.5% | viability, T/C [7] 128% | viability, T/C [8] 102% | viability, T/C [9] 109% | viability, T/C [10] 74.9% | viability, T/C [11] 82.1% | viability, T/C [12] 52.4% | viability, T/C [13] 67.6% | viability, T/C [14] 81.7% | viability, T/C [15] 103% | viability, T/C [16] 63.6% | viability, T/C [17] 71.7% | viability, T/C [18] 46.6% | viability, T/C [19] 60% | viability, T/C [20] 67.8% | viability, T/C [21] 75.9% | viability, T/C [22] 57% | viability, T/C [23] 61.6% | viability, T/C [24] 33.5% | viability, T/C [25] 39% | viability, T/C [26] 36.2% | viability, T/C [27] 30.2% | viability, T/C [28] 27% | viability, T/C [29] 20.6% | viability, T/C [30] 14.5%
< 31.6 nM: IC50 (second compound 3.16 µM) | IC50 (second compound 10 µM)
> 10000 nM: IC50 (second compound 0.0316 µM) | IC50 (second compound 0.1 µM)
8490 nM: IC50 (second compound 0.316 µM)
